Results from article PMC12191924, “A new naphthalene-based fluorogenic substrate for cytochrome P450 4A11” (Biochemical Journal, 2025).
“Also recorded” adds a separate entry of the source.

System: 16 human microsomal P450 enzymes
Experiment: Probing MONACRA metabolism by 16 recombinant human P450 enzymes
Format: biochemical
Details: CYP1A2, 2A6, 2B6, 2C8, 2C9, 2C19, 2D6, 2E1, 2J2, 3A4, 3A5, 4A11, 4F2, 4F3A, 4F3B, 4F12
Procedure: Based on these observations, we developed a high-throughput automated assay applicable for studying SSPs of MONACRA metabolism by microsomal P450 enzymes. In this procedure, the incubation mixtures containing an NADPH-generating system and various substrate concentrations are placed in a multiwell plate and preincubated at 30°C in a thermostated shaker. The reaction is started by adding microsomal suspension to the final concentration of 0.3–1 mg/ml of microsomal protein or 0.02–0.1 µM of recombinant P450 enzymes in Supersomes. Following the incubation for 20 min at 30°C, the reaction is quenched by adding trichloroacetic acid (final concentration […]). After supplementing the wells with Na-glycine buffer (pH 10.4, final concentration 2.1 M), the plates are subjected to scanning the fluorescence spectra with excitation at 375 nm. This assay, which is described in detail in Materials and Methods, allows reliable detection of the concentrations of HONACRA as low as 0.1 µM.
We used the high-throughput activity assay described above to probe MONACRA metabolism by 16 human microsomal P450 enzymes, namely CYP1A2, CYP2A6, CYP2B6, CYP2C8, CYP2C9, CYP2C19, CYP2D6, CYP2E1, CYP2J2, CYP3A4, CYP3A5, CYP4A11, CYP4F2, CYP4F3A, CYP4F3B, and CYP4F12. […]

Compound: COc1ccc2cc(C=CC(=O)O)ccc2c1 [MONACRA, 3-(6-methoxynaphthalen-2-yl)acrylic acid]
- activity in MONACRA demethylation among 16 recombinant human P450 enzymes: noticeable demethylation activity only with CYP4A11 and CYP1A2; also recorded: detectable activity in MONACRA demethylation was observed only with CYP4A11, CYP1A2, and CYP2C8
